Measurements reported in patent publication US20160207930A1 (LEO PHARMA A/S, priority 2013, published 2016).

Legend:
NK1 Receptor = target: T1, NK1 Receptor (Homo sapiens, UniProt P25103); experiment: NK1 receptor mediated intracellular [Ca2+] mobilization in U251 MG cells using FLIPR; type: cell-based; details: antagonism of Substance P (EC80), Fluo-4, read-out: NK1R mediated intracellular [Ca^2+] mobilization IC 50
T1 construct: Measurement of NK1 Receptor Mediated Intracellular [Ca^2+]; Mobilization in U251 MG Cells Using FLIPR; endogenous in cells; host or cells: U251 MG cells
Experimental: Measurement of NK1 Receptor Mediated Intracellular [Ca^2+] Mobilization in U251 MG Cells Using FLIPR
U251 MG cells were seeded into black walled clear-bottom 384-well plates (Greiner Bio-One GmbH, Frickenhausen, Germany) at a density of 15,000 cells/well in 50 μl culture medium and cultured overnight in a 37° C. 5% CO2 incubator. The cells were then loaded with the calcium sensitive dye Fluo-4 (Invitrogen) at 1 μM in buffer, containing 0.04% Pluronic F-127 (Sigma-Aldrich), and 2.5 mM probenecid (Sigma-Aldrich) for 60 min in a humidified atmosphere of 5% CO2. Thereafter, cells were washed three times in washing buffer containing 20 mM HEPES and 2.5 mM probenecid pH 7.3. Serial dilutions of test compounds in assay buffer containing 2% dimethyl sulfoxide (final concentration in the cell plate is 0.5% DMSO) and/or agonist were then automatically pipetted into each test well, and the peak fluorescence intensity was recorded (lex, 488 nm; lem, 540 nm) by the FLIPR instrument (Molecular Devices) for approximately 5 min. To measure antagonist potency, cell plates were first incubated with the test compound and intracellular fluorescence recorded for 5 minutes to check a potential agonist effect of the test compound. Cell plates were quickly removed from the FLIPR instrument and incubated for additional 10 minutes at 37° C. before being moved back to the FLIPR instrument for Substance P (EC80) addition. The response was measured as the peak relative fluorescence change after agonist addition.
Compound relative %-effect was normalized to the maximal response evoked by 100 nM Aprepitant in presence of the EC80 of Substance P and the antagonist potency determined by non-linear regression using GraphPad Prism (version 5) or the four-parameter logistic model in XLfit (IDBS, Guilford, UK) for Microsoft Excel (Microsoft, Redmond, Wash.). The IC50 value is defined as the molar concentration of a test compound that produces a response midway between the fitted top and the fitted bottom. pIC50=−log IC50
Formula is listed as follows:
Fit (% Effect calculated)=(A+((B−A)/(1+((C/X)̂D)))) • A: bottom value • B: top value • C: test compound concentration • X: Relative IC50 • D: Hill slope coefficient
Ref: Sullivan E, Tucker E M, and Dale I L. Measurement of [Ca^2+] using the Fluorometric Imaging Plate Reader (FLIPR). Methods Mol Biol 114:125-133, 1999.
Compounds of the present invention were tested according to example 100.

[1] = Hepatic intrinsic clearance following incubation in human liver microsomes; type: in vitro ADME; details: 0.5 μM test compound, NADPH, 0-30 min, scaled to g liver
Experimental: Hepatic Extraction Ratio from Hepatic Intrinsic Clearance Following Incubation in Human Liver Microsomes
The general procedure consists of an automated incubation system and LC-MS/MS analysis with human liver microsomes. Human liver microsomes are thawed rapidly in a waterbath at 37° C. and kept on ice until use. The human liver microsomes are diluted with 50 mM potassium phosphate buffer pH 7.4 to a protein concentration of 0.55 mg/mL. Test compounds and positive controls (Verapamil and Dextromethorphan, positive controls for CYP3A4 for CYP2D6 isoforms, respectively) are dissolved in methanol (or other appropriate solvent, if necessary) in order to obtain a 5 mM solution which is further diluted to the concentration of 50 μM. The stock solutions are prepared immediately before the test.
5 μL of 50 μM test compounds and controls are added to 445 μL-of the 0.55 mg/mL microsomes solution and the incubation mixture are pre-warmed at 37° C. for 5 minutes. The incubation reactions are initiated by adding 50 μL of pre-warmed NADPH regenerating system to the incubation mixtures. 50 μL-aliquots will be taken from the incubation mixtures at: 0, 3, 6, 9, 15 and 30 minutes and the reactions are stopped by adding 100 μL of ACN containing Rolipram, used as generic Internal Standard (IS). Samples are then diluted with 120 μL of Milli-Q water and centrifuged at 3000 rpm for 10 minutes, prior the LC-MS/MS analysis.
The integrated peak areas for test compounds at the selected time points are divided by the respective peak areas of the IS and the percent of parent remaining is calculated by normalizing the peak area ratio of parent to IS at 0 min. Observed rate constant (kobs) for parent degradation is calculated by determining the slope of the line of the graph of the natural log of percentage parent remaining versus time of incubation. From the rate of depletion (min−1) and volume of the incubation (mL), clearance is estimated. This is scaled for the protein in the incubation relative to that in the intact liver, for all species (mL/min/g liver).
Values for the Human in vitro Clint are expressed as mL/min/g liver.
Assuming a liver weight of 25.7 g/kg and a liver blood flow of 20.7 mL/min/kg, the hepatic extraction ratio, Eh, can be derived from the Human in vitro Clint:
E.g. a Human in vitro Clint of 2.4 mL/min/g liver corresponds to a hepatic extraction ratio of 75%.
Some compounds of the present invention were tested according to example 101.

T1 sequence (P25103 whole entry): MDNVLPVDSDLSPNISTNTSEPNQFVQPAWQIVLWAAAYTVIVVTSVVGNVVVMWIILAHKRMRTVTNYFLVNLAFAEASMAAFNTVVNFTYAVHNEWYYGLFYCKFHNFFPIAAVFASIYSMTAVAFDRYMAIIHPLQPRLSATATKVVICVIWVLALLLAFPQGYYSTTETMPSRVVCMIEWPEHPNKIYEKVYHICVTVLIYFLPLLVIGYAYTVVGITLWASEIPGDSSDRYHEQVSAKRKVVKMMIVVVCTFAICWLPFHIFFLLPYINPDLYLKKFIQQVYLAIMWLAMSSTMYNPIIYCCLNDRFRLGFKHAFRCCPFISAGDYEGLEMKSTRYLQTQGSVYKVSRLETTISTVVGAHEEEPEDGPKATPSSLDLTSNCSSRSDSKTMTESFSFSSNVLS

In the case of `CCc1cc([C@@H](C)N(C)C(=O)N2CCN3C(=O)CC[C@H]3[C@@H]2c2ccccc2CC)cc(C(F)(F)F)c1` (single isomer, unassigned) [Compound 70], the IC50 (NK1 Receptor) is reported as 0.94 nM and the “Human in vitro Clint” value [1] is reported as >200 mL/min/g.

With `Cc1cccc([C@H]2[C@@H]3CC(CCO)(CCO)C(=O)N3CCN2C(=O)N(C)[C@H](C)c2cc(C(F)(F)F)cc(C(F)(F)F)c2)c1C` [Compound 39, (1S,8aS)—N—((R)-1-(3,5-bis(trifluoromethyl)phenyl)ethyl)-1-(2,3-dimethylphenyl)-7,7-bis(2-hydroxyethyl)-N-methyl-6-oxohexahydropyrrolo[1,2-a]pyrazine-2(1H)-carboxamide] the IC50 (NK1 Receptor) was 0.119 nM and the “Human in vitro Clint” value [1] was >200 mL/min/g.

With `COc1cccc([C@H]2[C@@H]3CCC(=O)N3CCN2C(=O)N(C)[C@H](C)c2cc(C(C)C)cc(C(F)(F)F)c2)c1C` [Compound 78, (1S,8aS)—N—((R)-1-(3-isopropyl-5-(trifluoromethyl)phenyl)ethyl)-1-(3-methoxy-2-methylphenyl)-N-methyl-6-oxohexahydropyrrolo[1,2-a]pyrazine-2(1H)-carboxamide] the IC50 (NK1 Receptor) was 1.86 nM and the “Human in vitro Clint” value [1] was >200 mL/min/g.

For `Cc1cc([C@@H](C)N(C)C(=O)N2CCN3C(=O)C(CCO)(CCO)CC3C2c2ccc(C)cc2C)cc(C(F)(F)F)c1` (mixture of isomers) [Compound 8, 1-(2,4-dimethylphenyl)-7,7-bis(2-hydroxyethyl)-N-methyl-N—((R)-1-(3-methyl-5-(trifluoromethyl)phenyl)ethyl)-6-oxo-hexahydropyrrolo[1,2-a]pyrazine-2(1H)-carboxamide], the IC50 (NK1 Receptor) was 0.096 nM and the “Human in vitro Clint” value [1] was >200 mL/min/g.

For `CCc1cc([C@@H](C)N(C)C(=O)N2CCN3C(=O)C(CCO)(CCO)C[C@H]3[C@@H]2c2c[nH]nc2C)cc(C(F)(F)F)c1` [Compound 62, (1S,8aS)—N—((R)-1-(3-ethyl-5-(trifluoromethyl)phenyl)ethyl)-7,7-bis(2-hydroxyethyl)-N-methyl-1-(3-methyl-1H-pyrazol-4-yl)-6-oxohexahydropyrrolo[1,2-a]pyrazine-2(1H)-carboxamide], the IC50 (NK1 Receptor) was 1.07 nM and the “Human in vitro Clint” value [1] was 115 mL/min/g.

For `Cc1csc([C@H]2[C@@H]3CCC(=O)N3CCN2C(=O)N(C)[C@H](C)c2cc(C(F)(F)F)cc(C(F)(F)F)c2)c1C` [Compound 75, (1R,8aS)—N—((R)-1-(3,5-bis(trifluoromethyl)phenyl)ethyl)-1-(3,4-dimethylthiophen-2-yl)-N-methyl-6-oxohexahydropyrrolo[1,2-a]pyrazine-2(1H)-carboxamide], the IC50 (NK1 Receptor) was 0.34 nM and the “Human in vitro Clint” value [1] was >200 mL/min/g.

With `C[C@H](c1cc(C(F)(F)F)cc(C(F)(F)F)c1)N(C)C(=O)N1CCN2C(=O)CC[C@H]2[C@@H]1c1cccs1` [Compound 53, (1R,8aS)—N—((R)-1-(3,5-bis(trifluoromethyl)phenyl)ethyl)-N-methyl-6-oxo-1-(thiophen-2-yl)hexahydropyrrolo[1,2-a]pyrazine-2(1H)-carboxamide] the IC50 (NK1 Receptor) was 0.43 nM and the “Human in vitro Clint” value [1] was >200 mL/min/g.

In the case of `COc1ccccc1[C@H]1[C@@H]2CC(CCO)(CCO)C(=O)N2CCN1C(=O)N(C)[C@H](C)c1cc(C(F)(F)F)cc(C(F)(F)F)c1` [Compound 36, (1S,8aS)—N—((R)-1-(3,5-bis(trifluoromethyl)phenyl)ethyl)-7,7-bis(2-hydroxyethyl)-1-(2-methoxyphenyl)-N-methyl-6-oxo-hexahydropyrrolo[1,2-a]pyrazine-2(1H)-carboxamide], the IC50 (NK1 Receptor) is reported as 0.811 nM and the “Human in vitro Clint” value [1] is reported as 147 mL/min/g.

For `Cc1cc([C@@H](C)N(C)C(=O)N2CCN3C(=O)CC[C@H]3[C@@H]2c2sccc2C)cc(C(F)(F)F)c1` [Compound 52, (1R,8aS)—N-methyl-N—((R)-1-(3-methyl-5-(trifluoromethyl)phenyl)ethyl)-1-(3-methylthiophen-2-yl)-6-oxohexahydropyrrolo[1,2-a]pyrazine-2(1H)-carboxamide], the IC50 (NK1 Receptor) was 0.353 nM and the “Human in vitro Clint” value [1] was >200 mL/min/g.
